In patent US20160264593A1 (priority 2013, published 2016):
Where two headings read alike, the source gives them in different places.

Experiment: Pharmacokinetic study of 157 (and metabolite endothal) in SD rats, iv and po; plasma, liver, brain
Assay type: in vivo
Details: for AUC(0-inf) / AUC / Cmax / MRT last / half-life / concentration at 0.25 h / concentration at 1 h: 1.5 mg/kg; for AUC: read-out: AUC; for MRT last: read-out: MRT (0-t)
Protocol: The blood, liver and brain tissue samples were collected at predetermined times from rats. […] Compound were diluted shortly before use in 4% sodium bicarbonate for sterile injection (this is the standard pediatric solution of NaHCO3 with a pH of about 8.5).
Compound 153 was freshly prepared by diluting the drugs shortly before use in 4% sodium bicarbonate for sterile injection (this is the standard pediatric solution of NaHCO3 with a pH of about 8.5). The final concentrations of 153 solutions were 0.25 mg/mL. The 153 solutions were administered via iv or po route at dose volume of 5 ml/kg according to the latest body weight. Compound 157 was freshly prepared by diluting the drugs shortly before use in 4% sodium bicarbonate for sterile injection (this is the standard pediatric solution of NaHCO3 with a pH of about 8.5). The final concentrations of […] solutions were 0.3 mg/mL. The 157 solutions were administered via iv or po route at dose volume of 5 ml/kg according to the latest body weight.
Twelve (12) female SD rats per group were dosed by iv with 153 or 157. The rats were fasted overnight prior to dosing, with free access to water. Foods were withheld for 2 hours post-dose. Blood, liver and brain tissue samples in two animals each group were collected at each time point, within 10% of the scheduled time for each time point. Two extra animals were used for analytic method development.
Blood (>0.3 mL) were collected via aorta abdominalis in anaesthetic animals into tubes containing heparin at 15 min, 1, 2, 6, 10 and 24 hours after iv administration. Liver and brain tissues were collected immediately after animal death. The liver and brain tissues were excised and rinsed with cold saline to avoid blood residual. Upon collection, each sample was placed on ice and the blood samples were subsequently centrifuged (4° C., 11000 rpm, 5 min) to separate plasma. The obtained plasma, liver and brain tissue samples were stored at −70° C. until LC-MS/MS analysis.
Two (2) female SD rats per group were dosed by po with 153 or 157. The rats were fasted overnight prior to dosing, with free access to water. Foods were withheld for 2 hours post-dose. Blood samples (>0.3 mL) were collected via aorta abdominalis in anaesthetic animals into tubes containing heparin at 30 min, 1, 2, 6, 10 and 24 hours after po administration.
To each sample, 30 μL IS-D (for blank samples, 20 μL acetonitrile:water (1:1) was added) and 300 μl acetonitrile was added. The sample mixture was vortexed for approximately 3 min. After centrifugation at 10000 rpm for 5 min at 4° C., 100 μL of the upper layer was transferred to a new tube and added 200 μL 0.4% formic acid in water (pH6.0). The mixture was vortexed for approximately 3 min before injected onto the LC/MS/MS system for analysis.
On the day of the assay, the frozen liver and brain samples were thawed unassisted at room temperature. An about 200 mg weighed sample of each thawed tissue was placed into a plastic tube with water (0.6 mL) to facilitate homogenization. Tissue processing was conducted using a homogenizer for approximately 1 min, 100 μl homogenate was transferred into a fresh Eppendorf tube. To each tube, 50 μL IS-D was added and mixed. Then 500 μl acetonitrile was added and the sample mixture was vortexed for approximately 3 min. After centrifugation at 10000 rpm for 5 min at 4° C., 100 μL of the upper layer was transferred to a new tube and evaporate the supernatant to dryness at 35° C. Reconstitute the residue with 200 μL of 0.4% formic acid in water (pH 6.0), and vortex for 3 min, submit for LC-MS/MS analysis.
Frozen unknown plasma samples were completely thawed at room temperature and vortexed thoroughly. With a pipette, 50 μL of plasma was transferred into a 2.0 mL Eppendorf tube. 50 μL of 0.1N HCl and 800 μL ethyl acetate were added into each sample. The sample mixture was vortexed for approximately 3 min.

[1] = female, SD (Sprague-Dawley), rat, in vivo, iv, 157 in plasma, IV 1.5 mg/kg, Mean
[2] = female, SD (Sprague-Dawley), rat, in vivo, iv, 157 in plasma, IV 1.5 mg/kg, rat 1
[3] = female, SD (Sprague-Dawley), rat, in vivo, iv, 157 in plasma, IV 1.5 mg/kg, rat 2
[4] = female, SD (Sprague-Dawley), rat, in vivo, po, 157 in plasma, PO 1.5 mg/kg, Mean
[5] = female, SD (Sprague-Dawley), rat, in vivo, po, 157 in plasma, PO 1.5 mg/kg, rat 1
[6] = female, SD, rat, in vivo, iv, iv 1.5 mg/kg, Mean, read-out: 157 brain concentration
[7] = female, SD, rat, in vivo, iv, iv 1.5 mg/kg, Mean, read-out: 157 liver concentration
[8] = female, SD, rat, in vivo, iv, iv 1.5 mg/kg, Rat 1, read-out: 157 brain concentration
[9] = female, SD, rat, in vivo, iv, iv 1.5 mg/kg, Rat 2, read-out: 157 brain concentration

CCCCCCCOC(=O)C1C2CCC(O2)C1C(=O)N1CCN(C)CC1 (stereo not shown) [Compound 157, 3-(4-Methylpiperazine-1-carbonyl)-7-oxa-bicyclo[2,2,1]heptane-2-carboxylic acid heptyl ester]
F (157, PO 1.5 mg/kg vs IV 1.5 mg/kg, Mean): 6.78%
conversion to endothal in the plasma (statement) (157 administered to rats): converted to endothal
Tmax (157 in Brain, iv 1.5 mg/kg, Mean): 15 min
Tmax (157 in Brain, iv 1.5 mg/kg, rat 1): 15 min
Tmax (157 in Brain, iv 1.5 mg/kg, rat 2): 15 min
Tmax (157 in Liver, iv 1.5 mg/kg, rat 1): 15 min
Tmax (157 in Liver, iv 1.5 mg/kg, rat 2): 15 min
Tmax (157 in plasma, IV 1.5 mg/kg, Mean): 15 min
Tmax (157 in plasma, IV 1.5 mg/kg, rat 2): 15 min
Tmax (157 in plasma, PO 1.5 mg/kg, rat 1): 30 min
AUClast of 157 in brain (157 iv 1.5 mg/kg): 24.6 ng·h/g
AUClast of 157 in liver (157 iv 1.5 mg/kg): 152 ng·h/g
oral availability of 157 (statement) (157 po 1.5 mg/kg): poorly orally available
Tmax (female, SD (Sprague-Dawley), in vivo, 157 in plasma, IV 1.5 mg/kg, rat 1, read-out: Tmax): 15 min
AUC(0-inf) [1]: 47.2 ng·h/mL
AUC [1]: 47.2 ng·h/mL
Cmax (female, SD (Sprague-Dawley), rat, in vivo, iv, 157 in plasma, IV 1.5 mg/kg, Mean, read-out: Cmax): 115 ng/mL
MRT last [1]: 20.5 min
half-life (female, SD (Sprague-Dawley), rat, in vivo, iv, 157 in plasma, IV 1.5 mg/kg, Mean, read-out: T1/2 (converted)): 23.5 min
AUC(0-inf) [2]: 47.1 ng·h/mL
AUC [2]: 47.1 ng·h/mL
Cmax (female, SD (Sprague-Dawley), rat, in vivo, iv, 157 in plasma, IV 1.5 mg/kg, rat 1, read-out: Cmax): 116 ng/mL
MRT last [2]: 20 min
half-life (female, SD (Sprague-Dawley), rat, in vivo, iv, 157 in plasma, IV 1.5 mg/kg, rat 1, read-out: T1/2 (converted)): 24.5 min
AUC(0-inf) [3]: 47.3 ng·h/mL
AUC [3]: 47.3 ng·h/mL
Cmax (female, SD (Sprague-Dawley), rat, in vivo, iv, 157 in plasma, IV 1.5 mg/kg, rat 2, read-out: Cmax): 114 ng/mL
MRT last [3]: 20.9 min
half-life (female, SD (Sprague-Dawley), rat, in vivo, iv, 157 in plasma, IV 1.5 mg/kg, rat 2, read-out: T1/2 (converted)): 22.4 min
AUC(0-inf) [4]: 3.2 ng·h/mL
AUC [4]: 3.2 ng·h/mL
Cmax (female, SD (Sprague-Dawley), rat, in vivo, po, 157 in plasma, PO 1.5 mg/kg, Mean, read-out: Cmax): 6.14 ng/mL
MRT last [4]: 56.8 min
half-life (female, SD (Sprague-Dawley), rat, in vivo, po, 157 in plasma, PO 1.5 mg/kg, Mean, read-out: T1/2 (converted)): 24.2 min
AUC(0-inf) [5]: 3.4 ng·h/mL
AUC [5]: 3.4 ng·h/mL
Cmax (female, SD (Sprague-Dawley), rat, in vivo, po, 157 in plasma, PO 1.5 mg/kg, rat 1, read-out: Cmax): 5.92 ng/mL
MRT last [5]: 59.3 min
half-life (female, SD (Sprague-Dawley), rat, in vivo, po, 157 in plasma, PO 1.5 mg/kg, rat 1, read-out: T1/2 (converted)): 26.2 min
Tmax (female, SD (Sprague-Dawley), rat, in vivo, 157 in plasma, PO 1.5 mg/kg, Mean, read-out: Tmax): 30 min
half-life (female, SD, rat, in vivo, iv, 157 iv 1.5 mg/kg, read-out: T1/2 of 157 in brain (converted)): 9.72 min
half-life (female, SD, rat, in vivo, iv, 157 iv 1.5 mg/kg, read-out: T1/2 of 157 in liver (converted)): 48.8 min
half-life (female, SD, rat, in vivo, iv, 157 iv 1.5 mg/kg, read-out: T1/2 of 157 in plasma (converted)): 23.5 min
Cmax (female, SD, rat, in vivo, iv, 157 iv 1.5 mg/kg, read-out: mean Cmax of 157 in brain): 60 ng/g
Cmax (female, SD, rat, in vivo, iv, 157 iv 1.5 mg/kg, read-out: mean Cmax of 157 in liver): 297 ng/g
Cmax (female, SD, rat, in vivo, iv, 157 iv 1.5 mg/kg, read-out: mean Cmax of 157 in plasma): 115 ng/mL
concentration at 0.25 h [6]: 60 ng/g
concentration at 0.25 h [7]: 297 ng/g
concentration at 0.25 h [8]: 60 ng/g
concentration at 0.25 h [9]: 60 ng/g
concentration at 1 h [6]: 2.4 ng/g
concentration at 1 h [7]: 23.5 ng/g
concentration at 1 h [8]: 1.99 ng/g
concentration at 1 h (female, SD, rat, in vivo, iv, iv 1.5 mg/kg, Rat 1, read-out: 157 liver concentration): 29.4 ng/g
concentration at 1 h [9]: 2.8 ng/g
